The conditions of data set [1]: patients with osteoporosis; Zoledronic Acid alone, 3 patients. On the procedure:
In theory, co-administration of a steroid for a short duration could decrease inflammation and therefore the incidence of ONJ. […] A study comparing the incidence of PDS with Zoledronic acid with a Zoledronic Acid and steroid combination is, however, feasible and such a study has been undertaken.
Eight patients with osteoporosis were treated with Zoledronic Acid alone (3 patients) or with the combination of steroids (oral prednisone, 3, and intravenous prednisolone, 2) with Zoledronic Acid.

The conditions of data set [2]: administration of Zometa; syndrome of fever, nausea, bone pain, arthralgia, myalgia, chills; cited from earlier work.
The conditions of data set [3]: in vivo; cited from earlier work.

`O=P(O)(O)C(O)(Cn1ccnc1)P(=O)(O)O` [Zoledronic Acid]: in data set [1], the “patients who suffered from PDS” value is reported as “All three”. For the same compound, the “patients affected by post-dosing syndrome (PDS)” value in data set [2] was at most 44%. Besides, the t1/2α in data set [3] was 14.4 min.
